Experimental data: publication PMC5513037, “Examining the influence of specificity ligands and ATP-competitive ligands on the overall effectiveness of bivalent kinase inhibitors” (Proteome Science, 2017)

Key:
Test in all cases: KAM-matrix competition in K562 lysate;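 on 0.001 uM KAM: median log10 fold change of treatment over DMSO control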;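 on 0.01 uM KAM: median log10 fold change of treatment over DMSO control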;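 on 0.1 uM KAM: median log10 fold change of treatment over DMSO control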;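 on 1 uM KAM: median log10 fold change of treatment over DMSO control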;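 on 10 uM KAM: median log10 fold change of treatment over DMSO control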
Type in all cases: binding
CDK12 = target: T1, CDK12 (Homo sapiens, UniProt Q9NYV4)
T1 construct: endogenous in cells; host or cells: K562
Method: (§1) Supplement 12953_2017_125_MOESM1_ESM.zip/MS_Supp Info.xlsx, sheet "KAM" | column: 10 uM KAM; 1 uM KAM; 0.1 uM KAM; 0.01 uM KAM; 0.001 uM KAM; RB50

MAP3K6 = target: T2, MAP3K6 (Homo sapiens, UniProt O95382)
T2 construct: endogenous in cells; host or cells: K562
T2 sequence (O95382 1-1288): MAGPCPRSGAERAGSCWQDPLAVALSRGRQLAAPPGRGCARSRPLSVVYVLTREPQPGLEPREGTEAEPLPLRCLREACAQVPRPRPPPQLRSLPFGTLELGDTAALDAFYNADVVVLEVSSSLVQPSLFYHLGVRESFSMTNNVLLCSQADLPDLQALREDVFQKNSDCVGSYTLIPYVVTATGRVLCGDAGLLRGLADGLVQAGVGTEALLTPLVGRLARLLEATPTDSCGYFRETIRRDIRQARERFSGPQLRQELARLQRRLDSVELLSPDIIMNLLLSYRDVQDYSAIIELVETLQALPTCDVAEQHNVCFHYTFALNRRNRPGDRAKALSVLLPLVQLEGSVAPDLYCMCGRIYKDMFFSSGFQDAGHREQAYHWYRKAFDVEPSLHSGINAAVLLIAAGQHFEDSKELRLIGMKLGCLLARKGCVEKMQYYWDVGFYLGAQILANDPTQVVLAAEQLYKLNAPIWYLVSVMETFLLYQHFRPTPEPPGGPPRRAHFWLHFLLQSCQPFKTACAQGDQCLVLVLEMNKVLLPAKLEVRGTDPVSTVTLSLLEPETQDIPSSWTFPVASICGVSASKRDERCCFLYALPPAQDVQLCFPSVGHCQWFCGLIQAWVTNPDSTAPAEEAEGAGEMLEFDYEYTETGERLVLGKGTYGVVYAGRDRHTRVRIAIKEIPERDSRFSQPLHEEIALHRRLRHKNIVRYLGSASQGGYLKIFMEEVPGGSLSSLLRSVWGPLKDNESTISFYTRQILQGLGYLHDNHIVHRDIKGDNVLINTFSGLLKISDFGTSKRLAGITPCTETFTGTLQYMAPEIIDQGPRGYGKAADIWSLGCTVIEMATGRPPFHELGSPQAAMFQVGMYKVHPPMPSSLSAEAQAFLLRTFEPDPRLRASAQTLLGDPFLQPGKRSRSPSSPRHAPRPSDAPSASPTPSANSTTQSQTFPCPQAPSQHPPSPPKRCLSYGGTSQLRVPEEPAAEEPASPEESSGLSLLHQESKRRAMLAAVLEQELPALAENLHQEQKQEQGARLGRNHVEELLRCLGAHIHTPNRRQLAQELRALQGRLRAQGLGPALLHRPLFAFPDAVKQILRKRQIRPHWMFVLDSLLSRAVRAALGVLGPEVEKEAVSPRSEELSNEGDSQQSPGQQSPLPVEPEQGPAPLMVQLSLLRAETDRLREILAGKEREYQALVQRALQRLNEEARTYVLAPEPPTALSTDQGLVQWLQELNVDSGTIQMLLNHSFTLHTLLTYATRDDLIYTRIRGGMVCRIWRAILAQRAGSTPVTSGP
Method: as §1

MAP4K3 = target: T3, MAP4K3 (Homo sapiens, UniProt Q8IVH8)
T3 construct: endogenous in cells; host or cells: K562
T3 sequence (Q8IVH8 1-894): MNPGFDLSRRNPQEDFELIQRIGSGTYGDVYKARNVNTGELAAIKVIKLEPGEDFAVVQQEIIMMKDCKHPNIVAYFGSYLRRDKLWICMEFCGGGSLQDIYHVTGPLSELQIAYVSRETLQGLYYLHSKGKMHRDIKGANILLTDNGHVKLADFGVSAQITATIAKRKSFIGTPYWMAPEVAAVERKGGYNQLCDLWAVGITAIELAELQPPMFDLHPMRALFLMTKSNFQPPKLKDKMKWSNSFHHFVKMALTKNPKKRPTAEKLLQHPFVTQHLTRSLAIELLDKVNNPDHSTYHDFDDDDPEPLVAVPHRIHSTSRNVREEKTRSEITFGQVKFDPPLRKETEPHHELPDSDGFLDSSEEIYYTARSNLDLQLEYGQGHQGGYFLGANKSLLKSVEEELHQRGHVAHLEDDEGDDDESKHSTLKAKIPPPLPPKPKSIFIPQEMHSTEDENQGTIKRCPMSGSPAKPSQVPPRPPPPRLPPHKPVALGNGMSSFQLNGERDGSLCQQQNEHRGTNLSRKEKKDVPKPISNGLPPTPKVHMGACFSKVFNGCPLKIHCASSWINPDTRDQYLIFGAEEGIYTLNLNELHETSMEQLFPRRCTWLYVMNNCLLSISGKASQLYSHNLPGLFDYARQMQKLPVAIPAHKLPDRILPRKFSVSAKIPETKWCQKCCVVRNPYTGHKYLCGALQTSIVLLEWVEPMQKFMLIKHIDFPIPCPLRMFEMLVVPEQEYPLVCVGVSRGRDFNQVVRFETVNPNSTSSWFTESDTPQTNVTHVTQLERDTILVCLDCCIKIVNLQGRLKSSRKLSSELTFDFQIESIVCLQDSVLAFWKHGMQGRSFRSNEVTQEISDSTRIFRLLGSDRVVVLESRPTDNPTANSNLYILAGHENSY
Method: as §1

MAST2 = target: T4, MAST2 (Homo sapiens, UniProt Q6P0Q8);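 on 0.001 uM KAM: median log10 fold change of treatment over DMSO control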;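 on 0.01 uM KAM: median log10 fold change of treatment over DMSO control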;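 on 0.1 uM KAM: median log10 fold change of treatment over DMSO control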;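 on 1 uM KAM: median log10 fold change of treatment over DMSO control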;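 on 10 uM KAM: median log10 fold change of treatment over DMSO control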
T4 construct: endogenous in cells; host or cells: K562 cells (combined S0.8 and P0.8 lysate)
Method: as §1

MST1R = target: T5, MST1R (Homo sapiens, UniProt Q04912);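 on 0.001 uM KAM: median log10 fold change of treatment over DMSO control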;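 on 0.01 uM KAM: median log10 fold change of treatment over DMSO control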;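 on 0.1 uM KAM: median log10 fold change of treatment over DMSO control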;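 on 1 uM KAM: median log10 fold change of treatment over DMSO control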;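 on 10 uM KAM: median log10 fold change of treatment over DMSO control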
T5 construct: endogenous in cells; host or cells: K562
Method: as §1

[1] = read-out: RB50 (the source's name)
[2] = KAM 0.001-10 uM, read-out: RB50 (the source's name)

T4 sequence (Q6P0Q8 whole entry): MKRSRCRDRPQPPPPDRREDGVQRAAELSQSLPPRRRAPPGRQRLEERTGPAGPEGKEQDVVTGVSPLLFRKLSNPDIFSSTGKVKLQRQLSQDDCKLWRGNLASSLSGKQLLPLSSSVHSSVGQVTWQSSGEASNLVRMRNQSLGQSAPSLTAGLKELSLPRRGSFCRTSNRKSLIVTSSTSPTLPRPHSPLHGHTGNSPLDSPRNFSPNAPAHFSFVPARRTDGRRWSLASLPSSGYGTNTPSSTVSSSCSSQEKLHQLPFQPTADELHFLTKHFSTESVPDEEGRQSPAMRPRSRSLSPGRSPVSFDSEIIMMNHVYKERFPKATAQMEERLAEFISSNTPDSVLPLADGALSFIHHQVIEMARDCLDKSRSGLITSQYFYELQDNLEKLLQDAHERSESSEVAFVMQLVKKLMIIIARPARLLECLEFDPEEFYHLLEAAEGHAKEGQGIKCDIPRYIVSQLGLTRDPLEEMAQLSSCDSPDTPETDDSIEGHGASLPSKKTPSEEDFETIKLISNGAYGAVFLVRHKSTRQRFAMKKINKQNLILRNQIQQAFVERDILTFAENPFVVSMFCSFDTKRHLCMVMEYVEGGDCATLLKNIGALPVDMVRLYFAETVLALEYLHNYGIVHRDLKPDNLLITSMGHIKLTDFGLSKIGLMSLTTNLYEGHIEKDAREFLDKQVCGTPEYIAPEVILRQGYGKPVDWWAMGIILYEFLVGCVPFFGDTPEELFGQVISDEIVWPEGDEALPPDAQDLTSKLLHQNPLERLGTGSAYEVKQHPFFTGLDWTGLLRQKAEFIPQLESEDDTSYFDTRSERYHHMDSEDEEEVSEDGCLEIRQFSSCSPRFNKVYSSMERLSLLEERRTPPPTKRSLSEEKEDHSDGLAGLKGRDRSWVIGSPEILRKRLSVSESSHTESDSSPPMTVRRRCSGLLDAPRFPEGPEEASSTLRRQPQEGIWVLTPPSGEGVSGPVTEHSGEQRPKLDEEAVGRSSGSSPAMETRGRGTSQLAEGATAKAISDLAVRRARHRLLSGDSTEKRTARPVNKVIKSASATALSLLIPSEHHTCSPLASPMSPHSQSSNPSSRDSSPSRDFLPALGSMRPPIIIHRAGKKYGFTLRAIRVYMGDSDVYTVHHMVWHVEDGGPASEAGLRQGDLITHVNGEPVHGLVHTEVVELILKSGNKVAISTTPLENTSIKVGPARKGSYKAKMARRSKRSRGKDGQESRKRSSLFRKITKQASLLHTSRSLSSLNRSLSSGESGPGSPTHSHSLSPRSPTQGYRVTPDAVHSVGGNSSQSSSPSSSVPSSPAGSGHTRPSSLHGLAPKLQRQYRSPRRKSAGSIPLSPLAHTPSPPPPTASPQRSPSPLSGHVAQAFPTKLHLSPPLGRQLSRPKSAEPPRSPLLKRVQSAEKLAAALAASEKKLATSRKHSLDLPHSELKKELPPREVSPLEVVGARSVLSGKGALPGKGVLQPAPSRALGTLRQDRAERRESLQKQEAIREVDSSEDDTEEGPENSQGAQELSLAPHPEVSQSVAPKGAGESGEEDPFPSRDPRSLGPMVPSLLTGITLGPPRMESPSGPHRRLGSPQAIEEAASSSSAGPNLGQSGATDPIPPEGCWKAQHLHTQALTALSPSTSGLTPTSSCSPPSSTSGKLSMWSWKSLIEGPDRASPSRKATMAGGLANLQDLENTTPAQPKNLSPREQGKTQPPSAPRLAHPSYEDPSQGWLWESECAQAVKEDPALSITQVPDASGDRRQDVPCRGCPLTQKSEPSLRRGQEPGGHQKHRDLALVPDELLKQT
T5 sequence (Q04912 25-1400): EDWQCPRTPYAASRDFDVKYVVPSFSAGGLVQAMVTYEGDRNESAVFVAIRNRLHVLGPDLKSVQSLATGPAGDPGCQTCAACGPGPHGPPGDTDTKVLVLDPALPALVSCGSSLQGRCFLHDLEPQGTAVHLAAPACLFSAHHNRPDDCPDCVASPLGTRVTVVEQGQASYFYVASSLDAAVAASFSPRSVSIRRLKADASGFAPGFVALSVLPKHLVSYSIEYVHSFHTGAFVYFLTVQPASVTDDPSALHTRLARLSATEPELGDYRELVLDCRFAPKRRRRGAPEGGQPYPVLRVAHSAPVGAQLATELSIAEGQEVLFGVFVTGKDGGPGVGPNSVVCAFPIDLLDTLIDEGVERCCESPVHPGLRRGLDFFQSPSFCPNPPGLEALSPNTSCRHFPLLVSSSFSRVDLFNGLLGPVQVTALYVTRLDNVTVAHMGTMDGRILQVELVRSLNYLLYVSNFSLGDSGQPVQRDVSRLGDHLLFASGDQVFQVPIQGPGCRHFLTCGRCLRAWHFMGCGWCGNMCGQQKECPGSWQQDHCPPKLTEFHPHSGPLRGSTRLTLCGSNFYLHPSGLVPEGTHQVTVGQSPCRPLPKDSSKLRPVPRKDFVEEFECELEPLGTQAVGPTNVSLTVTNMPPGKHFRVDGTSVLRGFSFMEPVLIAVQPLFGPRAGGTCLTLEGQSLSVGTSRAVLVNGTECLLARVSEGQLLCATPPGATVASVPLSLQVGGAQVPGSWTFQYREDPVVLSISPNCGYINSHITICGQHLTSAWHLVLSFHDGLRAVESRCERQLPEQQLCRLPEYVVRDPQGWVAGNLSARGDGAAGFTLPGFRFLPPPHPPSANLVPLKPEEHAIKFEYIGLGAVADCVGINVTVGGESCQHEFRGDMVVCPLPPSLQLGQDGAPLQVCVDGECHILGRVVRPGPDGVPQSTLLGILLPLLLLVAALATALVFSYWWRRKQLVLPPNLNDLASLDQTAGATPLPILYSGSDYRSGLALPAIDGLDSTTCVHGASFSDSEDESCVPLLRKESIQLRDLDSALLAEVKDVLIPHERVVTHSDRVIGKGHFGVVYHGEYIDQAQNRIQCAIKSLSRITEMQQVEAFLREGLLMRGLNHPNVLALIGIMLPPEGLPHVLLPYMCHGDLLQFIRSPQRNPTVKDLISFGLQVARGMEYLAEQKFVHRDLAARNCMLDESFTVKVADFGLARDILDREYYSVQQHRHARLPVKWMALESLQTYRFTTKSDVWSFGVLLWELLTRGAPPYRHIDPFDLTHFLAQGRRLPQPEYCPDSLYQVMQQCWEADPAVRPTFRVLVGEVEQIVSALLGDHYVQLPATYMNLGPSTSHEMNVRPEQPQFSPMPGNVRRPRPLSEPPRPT

N#CCc1ccc(Nc2nc(NCCCN)cc(Nc3cc(C4CC4)[nH]n3)n2)cc1 [KAM]
median Log10 fold change (CDK12; 0.001 uM KAM): 0.006765 | median Log10 fold change (CDK12; 0.01 uM KAM): 0.002685 | median Log10 fold change (CDK12; 0.1 uM KAM): -0.1288 | median Log10 fold change (CDK12; 1 uM KAM): -0.2742 | median Log10 fold change (CDK12; 10 uM KAM): -0.4096 | IC50 (CDK12; [1]): 1.57 µM | median Log10 fold change (MAP3K6; 0.001 uM KAM): -0.04109 | median Log10 fold change (MAP3K6; 0.01 uM KAM): -0.01116 | median Log10 fold change (MAP3K6; 0.1 uM KAM): -0.09429 | median Log10 fold change (MAP3K6; 1 uM KAM): -0.1699 | median Log10 fold change (MAP3K6; 10 uM KAM): -0.3363 | IC50 (MAP3K6; [1]): 5.37 µM | median Log10 fold change (MAP4K3; 0.001 uM KAM): -0.00532 | median Log10 fold change (MAP4K3; 0.01 uM KAM): -0.01342 | median Log10 fold change (MAP4K3; 0.1 uM KAM): -0.1612 | median Log10 fold change (MAP4K3; 1 uM KAM): -0.436 | median Log10 fold change (MAP4K3; 10 uM KAM): -0.5629 | IC50 (MAP4K3; [1]): 0.472 µM | IC50 (MAST2; [2]): > 10 µM | 0.001 uM KAM (MAST2; relative to 0 uM KAM = 0): -0.0424 | 0.01 uM KAM (MAST2; relative to 0 uM KAM = 0): 0.0396 | 0.1 uM KAM (MAST2; relative to 0 uM KAM = 0): -0.03782 | 1 uM KAM (MAST2; relative to 0 uM KAM = 0): -0.1315 | 10 uM KAM (MAST2; relative to 0 uM KAM = 0): -0.1411 | IC50 (MST1R; [2]): > 10 µM | 0.001 uM KAM (MST1R; relative to 0 uM KAM = 0): -0.1284 | 0.01 uM KAM (MST1R; relative to 0 uM KAM = 0): -0.04073 | 0.1 uM KAM (MST1R; relative to 0 uM KAM = 0): -0.1983 | 1 uM KAM (MST1R; relative to 0 uM KAM = 0): -0.07265 | 10 uM KAM (MST1R; relative to 0 uM KAM = 0): -0.08067
